Here are results for two compounds from publication PMC6434189, “Peperomin E and its orally bioavailable analog induce oxidative stress-mediated apoptosis of acute myeloid leukemia progenitor cells by targeting thioredoxin reductase” (Redox Biology, 2019).

The structures appear in SMILES notation.

The kon is the second-order rate constant of association. The Kd is the free concentration of one partner at which half of the binding sites on the other are occupied at equilibrium, for simple one-to-one binding. Lower therefore signals a tighter complex.

The subject of series [1] is AML CD34+ cells. In words: Release study of DMAPE in vitro, AML CD34+ cells (UFLC-MS/MS). Format: in vitro ADME, human. Particulars: 10 μM DMAPE, 24 h. As for the experimental part: (§1) 1 × 10^5 cells (including sorted CD34^+ KG-1a cells and NBM cells) were seeded at 48-well plates (Corning, New York, USA) in the IMDM-based serum-free media for 1 h. The cells were then incubated with 10 μM DMAPE at 37 °C in the 5% CO2 incubator for 0, 12 or 24 h. The culture supernatant was collected by centrifugation at 3000 rpm for 10 min and evaporated to dryness at 30 °C using a CentriVap vacuum centrifugal concentrator. The resulting residue was reconstituted in 100 μL methanol, vortexed and centrifuged at 12000 rpm for 10 min. A 2 μL aliquot of the supernatant was injected for UFLC-MS/MS analysis (UFLC-MS/MS analysis method same as the pharmacokinetic study of DMAPE, see Additional method in Supplementary Materials).

The test system of series [2] is NBM CD34+ (including hBMSCs) cells. Description: Release study of DMAPE in vitro, NBM CD34+ cells (UFLC-MS/MS). Format: in vitro ADME, human. The conditions noted are these: 10 μM DMAPE, 24 h. The procedure: as §1
For series [3], the target named is T1, NADPH-reduced TrxR1 (Homo sapiens, UniProt Q16881).
T1 construct: purchased Abcam ab204206
T1 sequence (Q16881 1-499 isoform Q16881-5): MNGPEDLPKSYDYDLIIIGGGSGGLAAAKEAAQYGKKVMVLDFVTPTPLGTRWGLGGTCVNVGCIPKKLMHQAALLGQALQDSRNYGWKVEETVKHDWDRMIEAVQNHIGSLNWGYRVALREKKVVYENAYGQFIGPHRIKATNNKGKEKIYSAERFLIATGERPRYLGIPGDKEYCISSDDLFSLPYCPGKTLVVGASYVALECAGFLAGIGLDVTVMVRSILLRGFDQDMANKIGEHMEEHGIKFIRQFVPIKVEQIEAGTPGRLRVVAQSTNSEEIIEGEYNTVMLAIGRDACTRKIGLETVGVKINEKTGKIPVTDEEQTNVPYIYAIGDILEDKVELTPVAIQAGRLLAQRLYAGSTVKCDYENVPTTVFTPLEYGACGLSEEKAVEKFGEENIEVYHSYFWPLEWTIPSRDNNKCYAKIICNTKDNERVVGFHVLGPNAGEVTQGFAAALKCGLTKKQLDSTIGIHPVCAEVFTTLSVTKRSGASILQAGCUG
In words: Bio-layer interferometry (BLI) binding assay, TrxR1. As for the experimental part: (§2) The binding kinetics of PepE or PepA to purified recombinant proteins were determined using BLI on an Octet RED 96 system (ForteBio, Shanghai, China) following the manufacturer's protocol. All interaction analyses were performed at 25 °C in PBS with 0.2% DMSO. Purified recombinant proteins (0.9 μM, the TrxR1 full length and TrxR1 protein fragment were pre-reduced by 400 μM of NADPH before test) were pre-labeled with biotin using […] (Abcam) following the manufacturer's instruction. Loading of the Dip and Read Super Streptavidin (SSA) Biosensors (ForteBio) were conducted by exposing biotinylated proteins to biosensor tips for 2 h. The 96-well microplates used in the Octet were filled with 200 μL sample or buffer per well and agitated at 1000 rpm. The loaded biosensors were washed in buffer for 600 s and transferred to wells containing PepE at concentrations of 0.625, 1.25, 2.5, 5, and 10 μM or PepA at concentrations of 1.25, 2.5, 5, 10 and 20 μM, respectively, in the buffer. […] Reference measurements were conducted using the buffer instead of PepE (or PepA). A parallel set of SA unloaded biosensors was prepared to act as a control. The sample-sensorgrams were corrected by subtracting the double reference curve. Kinetic parameters (Kon and Kdis) and affinity (KD) were determined from a global fit to a 1:1 binding model of the data between proteins and PepE using Octet software (ForteBio).
In general terms: BLI is a label-free optical method that tracks binding on a fibre tip over time.

Series [4] concerns the target T2, TrxR1 nSec498 (Homo sapiens, UniProt Q16881).
T2 construct: protein fragment, without selenocysteine residue; purchased Abcam ab168011
T2 sequence (Q16881 11-497 isoform Q16881-5): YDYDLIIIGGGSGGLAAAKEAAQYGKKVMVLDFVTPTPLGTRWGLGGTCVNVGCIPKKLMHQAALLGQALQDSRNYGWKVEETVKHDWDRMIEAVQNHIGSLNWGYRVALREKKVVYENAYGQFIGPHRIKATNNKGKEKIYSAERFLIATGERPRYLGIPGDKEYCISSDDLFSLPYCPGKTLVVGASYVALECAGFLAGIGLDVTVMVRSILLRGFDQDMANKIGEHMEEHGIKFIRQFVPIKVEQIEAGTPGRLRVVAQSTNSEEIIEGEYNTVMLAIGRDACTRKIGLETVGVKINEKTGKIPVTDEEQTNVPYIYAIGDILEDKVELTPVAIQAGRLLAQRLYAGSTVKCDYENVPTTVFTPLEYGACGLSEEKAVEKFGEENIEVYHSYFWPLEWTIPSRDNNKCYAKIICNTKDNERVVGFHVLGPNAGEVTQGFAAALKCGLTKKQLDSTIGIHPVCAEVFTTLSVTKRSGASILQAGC
In words: BLI binding assay, TrxR1 without Sec498. Particulars: NADPH reduced TrxR1 nSec498 0.9 μM. The procedure: as §2, with “The sample-sensorgrams were corrected by subtracting the double reference curve.” left out

Take `COc1cc(C(c2cc(OC)c3c(c2)OCO3)[C@@H]2COC(=O)[C@H]2CN(C)CCO)cc2c1OCO2` [DMAPE, (2S,3S)-6-Methyl (hydroxyethyl) amino-2,6-dihydropeperomin E]: the “DMAPE in culture with AML CD34+ cells” value in series [1] is recorded as “could not be detected”. In addition, the “DMAPE remained in the culture media” value in series [2] is “about half”.
In series [3], `C=C1C(=O)OC[C@H]1C(c1cc(OC)c2c(c1)OCO2)c1cc(OC)c2c(c1)OCO2` [PepE, Peperomin E] returned a kon of 12400 M⁻¹ s⁻¹. In addition, the Kd was 340 nM in series [3] (NADPH-reduced TrxR1 0.9 μM, 25 °C); 341 nM in series [3] (Table S3); 11900 nM in series [4]. In series [3] (read-out: Kdis), the koff is 0.00423 s⁻¹.
